Source: US20230320956A1, “DIARYLALKANE COMPOUNDS AND COMPOSITIONS FOR USE WITH SKIN AGING AND METHODS OF PRODUCTION THEREOF” (Unigen, Inc., priority 2022, published 2023)

Assays:
[1] = tested on: keratinocytes (Hacat cell line); assay: Global gene expression (RNA-seq) in treated keratinocytes; format: cell-based, human; conditions: for Fold change (gene expression): 40 μM vs untreated; for Fold Enrichment / Number of Genes Differentially Expressed: 40 μM
Protocol: To determine specific expression changes dimethoxytolyl propylresorcinol exerted on human keratinocyte aging genes, keratinocytes (Hacat cell line) were treated dimethoxytolyl propylresorcinol at 40 μM and gene expression was analyzed by RNA-seq. Differential gene expression was compared to untreated keratinocytes and cells treated with 40 μM Retinol A to find genes involved in aging. […] Retinol was chosen as a positive control because retinoids have been described as having effective anti-aging and anti-wrinkle effects (Zasada M, 2019). We directly compared the effects of Retinol on keratinocytes with the same concentration of dimethoxytolyl propylresorcinol.

[2] = tested on: skin blotchiness/age spots, Caucasian subjects; assay: Self-assessment of skin blotchiness/age spots, Caucasian subjects; format: in vivo, human; conditions: Week 8
Protocol: Skin Blotchiness/Age Spots (Caucasian subjects): In order to determine any changes in skin blotchiness/age spots, chroma was analyzed by Visia CR®. The degree to which a color is free from being mixed with other colors is a good indication of its chromacity. An increase in the chroma score represented an improvement in skin blotchiness/age spots. A decrease represented a worsening. At each visit, Caucasian subjects rated their skin blotchiness/age spots according to the following scale: 0—No skin blotchiness or age spots visible, 1-3—Slight areas of skin blotchiness or age spots visible, 4-6—Moderate areas of skin blotchiness or age spots visible, 7-9—Severe areas of skin blotchiness or age spots visible. Additionally, at the final visit, subjects completed a questionnaire. There were no significant changes to skin blotchiness/age spots as assessed by the Visia CR® analysis at any of the clinic visits, although the Mean Score for skin blotchiness/age spots trended toward an increase at all 2, 4, and 8 weeks after starting dimethoxytolyl propylresorcinol use compared to Baseline, indicating an improvement in skin blotchiness/age spots (Table 27).

[3] = Gene Cluster Activation of MAPK activity
[4] = Gene Cluster Calcium ion binding
[5] = Gene Cluster Cell-cell signaling
[6] = Gene Cluster Cellular response to lipopolysaccharide
[7] = Gene Cluster Cellular response to retinoic acid
[8] = Gene Cluster Epidermis development
[9] = Gene Cluster Epithelial cell differentiation
[10] = Gene Cluster Extracellular exosome
[11] = Gene Cluster Extracellular matrix organization
[12] = Gene Cluster Extracellular region
[13] = Gene Cluster Extracellular space
[14] = Gene Cluster Growth factor activity
[15] = Gene Cluster Hyaluronan biosynthetic process
[16] = Gene Cluster Inflammatory response
[17] = Gene Cluster Intermediate filament cytoskeleton organization
[18] = Gene Cluster Keratinocyte differentiation
[19] = Gene Cluster Negative regulation of ERK1 and ERK2 cascade
[20] = Gene Cluster Negative regulation of cell proliferation
[21] = Gene Cluster Negative regulation of endopeptidase activity
[22] = Gene Cluster Neutrophil chemotaxis
[23] = Gene Cluster O-glycan processing
[24] = Gene Cluster Osteoblast differentiation
[25] = Gene Cluster Positive regulation of angiogenesis
[26] = Gene Cluster Positive regulation of cell migration
[27] = Gene Cluster Positive regulation of cell proliferation
[28] = Gene Cluster Positive regulation of gene expression
[29] = Gene Cluster Positive regulation of smooth muscle cell proliferation
[30] = Gene Cluster Proteinaceous extracellular matrix
[31] = Gene Cluster Transforming growth factor beta receptor binding

COc1ccc(CCCc2ccc(O)cc2O)c(OC)c1C [dimethoxytolyl propylresorcinol, 1-(3-methyl-2,4-dimethoxyphenyl)-3-(2′,4′-dihydroxyphenyl)-propane]
Fold change (gene expression) ([1]; AHR - Aryl hydrocarbon receptor, Oxidative stress): 1.73 fold | Fold change (gene expression) ([1]; ANGPTL4 - Angiopoietin-like 4, Negative regulation of growth/Angiogenesis): 8.23 fold | Fold change (gene expression) ([1]; ANOS1 - Anosmin 1, ECM/Nerve adhesion): 0.49 fold | Fold change (gene expression) ([1]; BMP4 - Bone morphogenetic protein 4, Growth): 0.41 fold | Fold change (gene expression) ([1]; C3orf33 - Chromosome 3 open reading frame 33, Negative regulation of growth): 3.03 fold | Fold change (gene expression) ([1]; CD1D - CD1d molecule, ECM): 0.36 fold | Fold change (gene expression) ([1]; CDK5R1 - Cyclin-dependent kinase 5 activator 1, Growth/Skin barrier): 1.54 fold | Fold change (gene expression) ([1]; CEACAM1 - CEA cell adhesion molecule 1, Cell adhesion): 2.01 fold | Fold change (gene expression) ([1]; COL1A1 - Collagen type 1, ECM): 1.89 fold | Fold change (gene expression) ([1]; COL5A1 - Collagen type V alpha 1 chain, ECM): 0.24 fold | Fold change (gene expression) ([1]; CRISPLD2 - Cysteine-rich secretory protein LCCL domain-containing 2, ECM): 2.56 fold | Fold change (gene expression) ([1]; CXCL3 - C-X-C motif chemokine ligand 3, Immune signaling): 8.16 fold | Fold change (gene expression) ([1]; CYP1A1 - Cytochrome P450 family 1 subfamily A member 1, Drug metabolism): 5.04 fold | Fold change (gene expression) ([1]; ECM1 - Extracellular matrix protein 1, ECM): 2.49 fold | Fold change (gene expression) ([1]; EPHA4 - Ephrin type-A receptor 4, Cell adhesion, cell communication): 0.42 fold | Fold change (gene expression) ([1]; EREG - Epiregulin, Growth): 9.61 fold | Fold change (gene expression) ([1]; FABP5 - Fatty acid binding protein 5, Skin barrier): 1.68 fold | Fold change (gene expression) ([1]; FGF1 - Fibroblast growth factor 1, Growth): 0.43 fold | Fold change (gene expression) ([1]; FGF11 - Fibroblast growth factor 11, Growth): 0.56 fold | Fold change (gene expression) ([1]; FLRT2 - Fibronectin leucine-rich transmembrane protein 2, ECM): 0.30 fold | Fold Enrichment [1, 3]: 2.39 fold | Number of Genes Differentially Expressed [1, 3]: 14 | Fold Enrichment ([1]; Gene Cluster Angiogenesis): 2.79 fold | Number of Genes Differentially Expressed ([1]; Gene Cluster Angiogenesis): 34 | Fold Enrichment [1, 4]: 1.49 fold | Number of Genes Differentially Expressed [1, 4]: 58 | Fold Enrichment ([1]; Gene Cluster Cell development): 4.12 fold | Number of Genes Differentially Expressed ([1]; Gene Cluster Cell development): 9 | Fold Enrichment ([1]; Gene Cluster Cell surface): 1.85 fold | Number of Genes Differentially Expressed ([1]; Gene Cluster Cell surface): 53 | Fold Enrichment [1, 5]: 2.59 fold | Number of Genes Differentially Expressed [1, 5]: 36 | Fold Enrichment [1, 6]: 3.08 fold | Number of Genes Differentially Expressed [1, 6]: 19 | Fold Enrichment [1, 7]: 3.14 fold | Number of Genes Differentially Expressed [1, 7]: 12 | Fold Enrichment [1, 8]: 4.52 fold | Number of Genes Differentially Expressed [1, 8]: 21 | Fold Enrichment [1, 9]: 2.87 fold | Number of Genes Differentially Expressed [1, 9]: 11 | Fold Enrichment [1, 10]: 1.23 fold | Number of Genes Differentially Expressed [1, 10]: 183 | Fold Enrichment [1, 11]: 2.05 fold | Number of Genes Differentially Expressed [1, 11]: 22 | Fold Enrichment [1, 12]: 1.60 fold | Number of Genes Differentially Expressed [1, 12]: 136 | Fold Enrichment [1, 13]: 1.97 fold | Number of Genes Differentially Expressed [1, 13]: 140 | Fold Enrichment [1, 14]: 3.63 fold | Number of Genes Differentially Expressed [1, 14]: 32 | Fold Enrichment ([1]; Gene Cluster Growth): 5.23 fold | Number of Genes Differentially Expressed ([1]; Gene Cluster Growth): 8 | Fold Enrichment ([1]; Gene Cluster Heparin binding): 2.53 fold | Number of Genes Differentially Expressed ([1]; Gene Cluster Heparin binding): 22 | Fold Enrichment [1, 15]: 10.45 fold | Number of Genes Differentially Expressed [1, 15]: 4 | Fold Enrichment [1, 16]: 2.61 fold | Number of Genes Differentially Expressed [1, 16]: 54 | Fold Enrichment [1, 17]: 7.32 fold | Number of Genes Differentially Expressed [1, 17]: 6 | Fold Enrichment [1, 18]: 3.13 fold | Number of Genes Differentially Expressed [1, 18]: 13 | Fold Enrichment [1, 19]: 3.47 fold | Number of Genes Differentially Expressed [1, 19]: 11 | Fold Enrichment [1, 20]: 2.17 fold | Number of Genes Differentially Expressed [1, 20]: 47 | Fold Enrichment [1, 21]: 2.42 fold | Number of Genes Differentially Expressed [1, 21]: 16 | Fold Enrichment [1, 22]: 3.33 fold | Number of Genes Differentially Expressed [1, 22]: 12 | Fold Enrichment [1, 23]: 3.05 fold | Number of Genes Differentially Expressed [1, 23]: 10 | Fold Enrichment [1, 24]: 2.64 fold | Number of Genes Differentially Expressed [1, 24]: 15 | Fold Enrichment [1, 25]: 3.02 fold | Number of Genes Differentially Expressed [1, 25]: 19 | Fold Enrichment [1, 26]: 2.88 fold | Number of Genes Differentially Expressed [1, 26]: 29 | Fold Enrichment [1, 27]: 1.96 fold | Number of Genes Differentially Expressed [1, 27]: 50 | Fold Enrichment [1, 28]: 1.82 fold | Number of Genes Differentially Expressed [1, 28]: 26 | Fold Enrichment [1, 29]: 4.88 fold | Number of Genes Differentially Expressed [1, 29]: 16 | Fold Enrichment [1, 30]: 2.47 fold | Number of Genes Differentially Expressed [1, 30]: 35 | Fold Enrichment ([1]; Gene Cluster Response to drug): 2.04 fold | Number of Genes Differentially Expressed ([1]; Gene Cluster Response to drug): 34 | Fold Enrichment [1, 31]: 4.82 fold | Number of Genes Differentially Expressed [1, 31]: 11 | Fold Enrichment ([1]; Gene Cluster Wound healing): 3.20 fold | Number of Genes Differentially Expressed ([1]; Gene Cluster Wound healing): 14 | Fold change (gene expression) ([1]; HAS2 - hyaluronan synthase 2, ECM): 5.48 fold | Fold change (gene expression) ([1]; HAS3 - hyaluronan synthase 3, ECM): 3.59 fold | Fold change (gene expression) ([1]; HBEGF - Heparin-binding EGF-like growth factor, Growth): 8.61 fold | Fold change (gene expression) ([1]; HIF1A - Hypoxia-inducible factor 1 subunit alpha, Oxidative stress): 1.36 fold | Fold change (gene expression) ([1]; HMOX1 - Heme oxygenase 1, Oxidative stress): 5.23 fold | Fold change (gene expression) ([1]; HS3ST1 - Heparan sulfate-glucosamine 3-sulfotransferase 1, ECM): 2.28 fold | Fold change (gene expression) ([1]; IL1A - Interleukin 1 alpha, Cytokine signaling): 6.60 fold | Fold change (gene expression) ([1]; IL1RL1 - Interleukin 1 receptor-like 1, Immune signaling): 17.29 fold | Fold change (gene expression) ([1]; ITGA6 - Integrin subunit alpha 6, Cell adhesion): 1.44 fold | Fold change (gene expression) ([1]; ITGBL1 - Integrin subunit beta-like 1, Cell adhesion): 0.68 fold | Fold change (gene expression) ([1]; KIF13A - Kinesin family member 13A, Cytoskeleton/secretion): 0.67 fold | Fold change (gene expression) ([1]; LAMA3 - Laminin subunit alpha 3, ECM): 1.59 fold | Fold change (gene expression) ([1]; LAMC2 - Laminin subunit gamma 2, ECM): 2.72 fold | Fold change (gene expression) ([1]; NGF - Nerve growth factor, Growth): 113.25 fold | Fold change (gene expression) ([1]; NID2 - Nidogen 2 precursor, ECM): 1.45 fold | Fold change (gene expression) ([1]; OCLN - Occludin, Skin barrier): 1.42 fold | Fold change (gene expression) ([1]; OLFM4 - Olfactomedin 4, ECM): 0.10 fold | Fold change (gene expression) ([1]; PARP15 - Poly (ADP-Ribose) polymerase family member 15, DNA damage repair/transcription regulation): 98.2 fold | Fold change (gene expression) ([1]; PI3 - Peptidase inhibitor 3, elastase inhibitor, Elastin genes): 10.5 fold | Fold change (gene expression) ([1]; PSAPL1 - Prosaposin-like 1, ECM): 0.30 fold | Fold change (gene expression) ([1]; PSG5 - Pregnancy specific beta-1-glycoprotein 5, ECM): 0.30 fold | Fold change (gene expression) ([1]; PTPRR - Protein tyrosine phosphatase receptor type R, Negative regulation of growth): 3.96 fold | Fold change (gene expression) ([1]; RAPGEF3 - Rap guanine nucleotide exchange factor 3, Plasma membrane fusion/cytoskeleton): 1.78 fold | Fold change (gene expression) ([1]; SELE - E-Selectin, Cell adhesion): 99.30 fold | Fold change (gene expression) ([1]; SEMA3D - Semaphorin 3D, ECM/Nerve growth): 0.54 fold | Fold change (gene expression) ([1]; SERPINB2 - Serpin family B member 2, Skin barrier): 4.25 fold | Fold change (gene expression) ([1]; SERPINB4 - Serpin family B member 4, Skin barrier): 6.37 fold | Fold change (gene expression) ([1]; SIRT1 - Sirtuin 1, Transcription regulation): 1.30 fold | Fold change (gene expression) ([1]; SIRT7 - Sirtuin 7, Transcription regulation): 1.41 fold | Fold change (gene expression) ([1]; SOD2 - Superoxide dismutase 2, Oxidative stress): 1.54 fold | Fold change (gene expression) ([1]; TFP12 - Tissue factor pathway inhibitor 2, ECM): 2.37 fold | Fold change (gene expression) ([1]; TGFB1 - Transforming growth factor beta 1, TGF-β signaling): 1.30 fold | Fold change (gene expression) ([1]; TLR4 - Toll-like receptor 4, Immune signaling): 3.41 fold | Fold change (gene expression) ([1]; TNC - Tenascin C, ECM/Nerve growth): 0.50 fold | Fold change (gene expression) ([1]; TP73 - Tumor protein P73, Growth): 0.35 fold | Fold change (gene expression) ([1]; TXNRD1 - Thioredoxin reductase 1, Oxidative stress): 1.52 fold | Fold change (gene expression) ([1]; UGCG - UDP-glucose ceramide glucosyltransferase, Lipid metabolism and transport): 1.56 fold | Fold change (gene expression) ([1]; VIT - Vitrin, ECM): 0.08 fold | Self-Assessment Skin Blotchiness/Age Spots % Improvement from Baseline [2]: 37%
